Results reported in patent publication US20030083239A1, “Chemokine receptor CCR3 antagonists” (priority 1999, published 2003).
Where two headings read alike, the source gives them in different places. Ends that are not written are not given here. Peptide text beside a SMILES is read from it.

How the values were obtained:
[1] = target: T1, CXCR4 (Homo sapiens, UniProt P61073); assay: Binding specificity, CXCR4 transfected in 293 cells; settings: CXCR4 transfected 293 cells; peptide at 10 μM (FIG. 4 legend)
T1 construct: expressed in transfected cells; host or cells: 293 cells
T1 sequence (P61073 whole entry, species assumed): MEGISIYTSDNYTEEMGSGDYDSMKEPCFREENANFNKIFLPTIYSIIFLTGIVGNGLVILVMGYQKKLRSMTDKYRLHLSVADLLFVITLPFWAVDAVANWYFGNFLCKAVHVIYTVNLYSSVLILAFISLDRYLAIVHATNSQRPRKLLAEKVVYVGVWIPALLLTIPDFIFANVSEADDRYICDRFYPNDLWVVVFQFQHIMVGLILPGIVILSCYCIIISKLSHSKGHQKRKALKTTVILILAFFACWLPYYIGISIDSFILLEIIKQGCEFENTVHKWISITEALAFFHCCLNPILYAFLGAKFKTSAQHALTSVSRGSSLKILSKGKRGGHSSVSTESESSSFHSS
Description: (§1) Chemokine binding to the target cells, human eosinophils and 293/CCR3 cells, was carried out using a modification of a method previously reported. Cells were washed once in PBS and resuspended in binding buffer (50 mM HEPES, 1 mM CaCl2, 5 mM MgCl2, and 0.5% BSA) at a concentration of 1×10^7/mL. Aliquots of 50 μL (5×10^5 cells) were dispensed into microfuge tubes, followed by the addition of cold and radiolabeled chemokines. The final reaction volume was 200 μL. Nonspecific binding was determined by incubating cells with radiolabeled chemokines in the presence of increasing amounts of (250-500 nM) of cold chemokine. After 60-min incubation, at room temperature, the cells were washed three times with 1 ml of binding buffer plus 0.5 M NaCl. Cell pellets were then counted. All experiments were carried out using duplicates and repeated at least three times. Curve fit was calculated by Kaleidagraph™ software (Synergy Software, Reading, Pa.). Inhibition of binding was assessed by the addition of test inhibitor compound at the indicated concentrations, and incubation for 30 min prior to addition of the chemokine as above.
(§2) The compound was used in the binding assay to compete with CXCR4, CXCR2, CCR2, and CCR3 transfected in 293 cells. […] The data are representative of three independent experiments.

[2] = target: T2, CCR2 (Homo sapiens, UniProt P41597); assay: Binding specificity, CCR2 transfected in 293 cells; settings: CCR2 transfected 293 cells; peptide at 10 μM (FIG. 4 legend)
T2 construct: expressed in transfected cells; host or cells: 293 cells
T2 sequence (P41597 whole entry, species assumed): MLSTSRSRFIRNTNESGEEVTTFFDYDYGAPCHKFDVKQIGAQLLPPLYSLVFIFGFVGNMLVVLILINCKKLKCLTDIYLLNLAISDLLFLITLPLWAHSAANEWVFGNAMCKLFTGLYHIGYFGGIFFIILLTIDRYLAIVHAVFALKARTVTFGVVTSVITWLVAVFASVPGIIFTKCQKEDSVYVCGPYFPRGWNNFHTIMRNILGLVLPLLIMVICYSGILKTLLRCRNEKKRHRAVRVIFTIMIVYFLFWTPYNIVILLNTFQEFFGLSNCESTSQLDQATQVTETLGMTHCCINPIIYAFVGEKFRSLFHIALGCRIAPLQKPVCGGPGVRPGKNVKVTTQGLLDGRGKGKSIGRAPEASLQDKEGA
Description: as §1, §2

[3] = target: T3, CCR3 (Homo sapiens, UniProt P51677); assay: Binding specificity, CCR3 transfected in 293 cells; settings: CCR3 transfected 293 cells; peptide at 10 μM (FIG. 4 legend)
T3 construct: expressed in transfected cells; host or cells: 293 cells
T3 sequence (P51677 1-355): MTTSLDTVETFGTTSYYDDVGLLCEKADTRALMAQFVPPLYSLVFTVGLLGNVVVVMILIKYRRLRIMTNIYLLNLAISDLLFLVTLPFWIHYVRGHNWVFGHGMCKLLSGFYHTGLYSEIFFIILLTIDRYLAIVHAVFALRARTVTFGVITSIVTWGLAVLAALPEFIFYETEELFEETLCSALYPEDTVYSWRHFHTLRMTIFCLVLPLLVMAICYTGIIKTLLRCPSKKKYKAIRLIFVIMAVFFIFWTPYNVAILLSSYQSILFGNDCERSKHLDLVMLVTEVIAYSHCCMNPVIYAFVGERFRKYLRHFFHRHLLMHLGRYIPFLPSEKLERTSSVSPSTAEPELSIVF
Description: as §1, §2

[4] = system: human eosinophils; type: cell-based
Description: Human eosinophils were prepared by isolation from the blood of donor individuals with high levels of circulating blood eosinophils (5-17%) by combining density gradient centrifugation and negative selection with anti-CD16 magnetic beads. Briefly, the granulocyte fraction from the Percoll centrifugation was incubated with CD16 micro beads (miniMACS™, separation unit) for 30 minutes. Cells were then passed through a MACS™ column (Miltenyi Biotec, Inc., Auburn, Calif.) and eosinophils were collected in the flow through. Eosinophil purity was >98% as determined by analysis of Diff-Quik™ (Baxter) stained cytocentrifugation preparations by light microscopy. Intracellular free calcium was measured using the fluorescent probe Fluo-3. Cell suspensions (10^7 cells/ml) were loaded with Fluo-3/AM (1 μM, 30 minutes at 37° C), washed, resuspended at 2×10^6 cells/ml in Hanks' balanced salt solution (HBSS) and their fluorescence monitored in a spectrofluorometer (SLM 8000, SLM-Aminco, Champagne, Ill., USA) (excitation and emission wavelengths, 500 and 530 nm, respectively) The internal calcium concentrations were calculated as described in Tsien et al. (J. Cell. Biol. 94: 3325-3334, 1982). Each assay was individually calibrated.

[5] = system: human eosinophils; assay: Cytotoxicity, lysis of 51Cr-labeled cells; type: cell-based; settings: cells cultured in presence of the peptide
Description: To exclude the possible contribution of cytotoxicity of the hexapeptides to the inhibition of eosinophil function, ^51Cr-labeled cells were cultured in presence of the peptide for the indicated time.

[6] = system: human eosinophils; assay: Cell viability by MTT incorporation; type: cell-based; settings: after 24 hours
Description: In FIG. 5, cell viability in presence of SC004411 was assayed with MTT incorporation. […] The data are representative of three independent experiments.

[7] = system: human eosinophils; type: cell-based; remark: listed apart in the source
Description: Human eosinophils were prepared by isolation from the blood of donor individuals with high levels of circulating blood eosinophils (5-17%) by combining density gradient centrifugation and negative selection with anti-CD16 magnetic beads. Briefly, the granulocyte fraction from the Percoll centrifugation was incubated with CD16 micro beads (miniMACS™, separation unit) for 30 minutes. Cells were then passed through a MACS™ column (Miltenyi Biotec, Inc., Auburn, Calif.) and eosinophils were collected in the flow through. Eosinophil purity was >98% as determined by analysis of Diff-Quik™ (Baxter) stained cytocentrifugation preparations by light microscopy. Leukocyte chemotaxis was assessed on eosinophils, using a modification of a transendothelial assay. The endothelial cells used in this assay were the endothelial cell line, ECV 304, obtained from the European collection of Animal Cell Cultures (Porton Downs, Salisbury, U.K.). Endothelial cells were cultured on 6.5 mm diameter Transwell™ culture inserts (Costar Corp., Cambridge, Mass.) with 3.0 μm pore size. The assay media consisted of equal parts RPMI 1640 and M199 with 0.5% BSA. […] The cells that had migrated to the bottom chamber were counted using flow cytometry. […] Inhibitor potency was determined by comparison of cell numbers migrated to the bottom chamber, with or without inhibitor. […]

[8] = target: T4, CXCR2 (Homo sapiens, UniProt P25025); assay: Binding specificity, CXCR2 transfected in 293 cells; settings: CXCR2 transfected 293 cells; peptide at 10 μM (FIG. 4 legend)
T4 construct: expressed in transfected cells; host or cells: 293 cells
T4 sequence (P25025 1-360): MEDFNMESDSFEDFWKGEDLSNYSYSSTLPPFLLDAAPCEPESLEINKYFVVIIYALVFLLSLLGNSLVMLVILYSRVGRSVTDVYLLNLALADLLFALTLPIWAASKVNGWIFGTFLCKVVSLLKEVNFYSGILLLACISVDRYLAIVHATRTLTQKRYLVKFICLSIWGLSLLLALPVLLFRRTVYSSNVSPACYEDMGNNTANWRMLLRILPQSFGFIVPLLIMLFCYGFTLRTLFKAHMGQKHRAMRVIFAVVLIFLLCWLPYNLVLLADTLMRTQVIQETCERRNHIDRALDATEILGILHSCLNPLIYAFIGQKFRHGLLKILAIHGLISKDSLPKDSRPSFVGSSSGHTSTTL
Description: as §1, §2

[9] = system: human eosinophils; type: cell-based; remark: listed apart in the source
[10] = target: T5, CCR3 on human eosinophils (human, UniProt P51677 1-355); assay: competition with 125I-eotaxin (0.3 nM) for CCR3 on human eosinophils, filtration radioligand assay
T5 construct: whole, on cells; Endogenous receptor on purified human eosinophils; also called chemokine receptor CCR3; CCR3 receptor
T5 sequence (looked up): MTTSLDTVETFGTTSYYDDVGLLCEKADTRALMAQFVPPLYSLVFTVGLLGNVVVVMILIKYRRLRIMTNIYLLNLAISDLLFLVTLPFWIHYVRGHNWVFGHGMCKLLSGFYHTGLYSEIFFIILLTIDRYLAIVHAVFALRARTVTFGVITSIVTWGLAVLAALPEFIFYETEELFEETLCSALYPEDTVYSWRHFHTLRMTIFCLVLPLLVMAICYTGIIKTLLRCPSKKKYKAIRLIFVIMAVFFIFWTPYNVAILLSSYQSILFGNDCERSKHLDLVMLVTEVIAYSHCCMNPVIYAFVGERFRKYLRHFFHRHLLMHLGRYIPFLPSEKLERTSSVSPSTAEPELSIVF

[11] = target: T5, CCR3 on human eosinophils; assay: cell-based or functional assay

Molecule	inhibition of binding to CXCR4 [1]	inhibition of binding to CCR2 [2]	inhibition of eotaxin-binding to CCR3 [3]	IC50 [4] [µM]	cell lysis of 51Cr-labeled human eosinophils [5]	concentration at which the compound starts to be toxic (MTT viability) [6]	IC50 [7] [µM]	inhibition of binding to CXCR2 [8]	toxicity by Trypan Blue exclusion [9]	IC50 [10] [µM]	inhibition of eotaxin-induced calcium mobilization of human eosinophils (functional IC50) [11] [µM]	inhibition of eotaxin-induced chemotaxis of human eosinophils (functional IC50) [11] [µM]
CC(=O)N[C@@H](CS)C(=O)N[C@@H](CCCNC(=N)N)C(=O)N[C@@H](CS)C(=O)N[C@@H](C)C(=O)N[C@@H](C)C(=O)N[C@@H](CCCNC(=N)N)C(N)=O [SC004411, CRCAAR] (Ac-CRCAAR-NH2; N-terminus and C-terminus assumed)	not	not	specifically inhibited	~40	did not cause cell lysis	above 100 μM	~20	not	not toxic	–	–	–
CRCAAR (not fully specified; cysteine pairing not given here, Synthetic hexapeptide; also called compound SC004411) [hexamer peptide CRCAAR (SEQ ID NO: 1), peptide SC004411]	–	–	–	–	–	–	–	–	–	~40	~40	~20
